What was measured:
Type in all cases: in vivo
Lolium multiflorum [1] = assay: Herbicidal pre-emergence action; details: pre-emergence method, 80 g/ha, greenhouse, visual assessment vs untreated controls
How it was run: (§1)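 Seeds sown in sandy loam and covered; WP-formulated compounds applied to the soil surface as aqueous suspension at 600 l/ha with 0.2% wetting agent, at varying rates. Greenhouse-grown; emergence damage scored visually after three weeks versus untreated controls (100% = plants dead, 0% = like control).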

Setaria viridis [2] = assay: Herbicidal pre-emergence action; details: pre-emergence method, 80 g/ha, greenhouse, visual assessment vs untreated controls
How it was run: as §1

Alopecurus myosuroides [3] = assay: Herbicidal pre-emergence action; details: pre-emergence method, 80 g/ha, greenhouse, visual assessment vs untreated controls
How it was run: as §1

Echinocloa crus-galli [4] = assay: Herbicidal pre-emergence action; details: pre-emergence method, 80 g/ha, greenhouse, visual assessment vs untreated controls
How it was run: as §1

Lolium multiflorum [5] = assay: Herbicidal post-emergence action; details: post-emergence method, 80 g/ha
How it was run: (§2)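 One-leaf-stage greenhouse plants sprayed with WP at graded amounts (600 l/ha, 0.2% wetting agent); ~3 wk later, visual % effect rated vs untreated controls, 100% = dead, 0% = like control.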

Setaria viridis [6] = assay: Herbicidal post-emergence action; details: post-emergence method, 80 g/ha
How it was run: as §2

Alopecurus myosuroides [7] = assay: Herbicidal post-emergence action; details: post-emergence method, 80 g/ha
How it was run: as §2

Echinocloa crus-galli [8] = assay: Herbicidal post-emergence action; details: post-emergence method, 80 g/ha
How it was run: as §2

[9] = tested on: monocotylidonous and dicotylidonous weed and crop plants; assay: Herbicidal post-emergence action (other test plants); details: post-emergence method, 80 g/ha
How it was run: as §2

[10] = tested on: monocotylidonous and dicotylidonous weed and crop plants; assay: Herbicidal pre-emergence action (other test plants); details: pre-emergence method, 80 g/ha, greenhouse, visual assessment vs untreated controls
How it was run: as §1

SMILES | herbicidal effect LOLMU (Lolium multiflorum [1]) [%] | herbicidal effect SETVI (Setaria viridis [2]) [%] | herbicidal effect ALOMY (Alopecurus myosuroides [3]) [%] | herbicidal effect ECHCG (Echinocloa crus-galli [4]) [%] | herbicidal effect against LOLMU (Lolium multiflorum) (Lolium multiflorum [5]) [%] | herbicidal effect against SETVI (Setaria viridis) (Setaria viridis [6]) [%] | herbicidal effect against ALOMY (Alopecurus myosuroides) (Alopecurus myosuroides [7]) [%] | herbicidal effect against ECHCG (Echinochloa crus-galli) (Echinocloa crus-galli [8]) [%] | herbicidal effect against AVEFA (Avena fatua) [9] [%] | herbicidal effect AVEFA [10] [%]
CCOC(=O)OC1=C(c2c(C)cc(C)cc2C)C(=O)C2CC3(CC12)OCC=CCO3 (racemic) [I-c-51] | 90 | 90 | 100 | 30 | 100 | 100 | 100 | 100 | 40 | 60
C=C1CC2C(=O)C(c3c(C)cc(C)cc3CC)=C(OC(=O)OC)C2C1 (racemic) [I-c-77] | 90 | 100 | 80 | 80 | 90 | 90 | 0 | 100 | 0 | 80
Cc1cc(C)c(C2=C(OC(=O)C(C)C)C3CC4(CC3C2=O)OCCO4)c(C)c1 (stereo not drawn) [I-b-39] | 80 | 0 | 60 | 10 | 100 | 90 | 60 | 100 | 20 | 50
CC(=O)OC1=C(c2c(C)cc(C)cc2C)C(=O)C2CC3(COC(C)(C)O3)CC12 (mixture of isomers) [I-b-49] | 70 | 0 | 90 | 50 | 100 | 60 | 90 | 100 | 80 | 70
C=C1CC2C(=O)C(c3c(C)cc(C)cc3C)=C(OC(=O)C(C)(C)C)C2C1 (stereo not drawn) [I-b-37] | 70 | 70 | 90 | 70 | 70 | 90 | 0 | 90 | 0 | 40
C=C1CC2C(=O)C(c3c(C)cc(C)cc3OC)=C(OC(=O)OCC)C2C1 (racemic) [I-c-61] | 50 | 90 | 70 | 90 | 70 | 90 | 40 | 90 | 0 | 60
CCOC(=O)OC1=C(c2c(C)cc(C)cc2C)C(=O)C2CC3(CC12)OCCO3 (stereo not drawn) [I-c-44] | 100 | 0 | 50 | 0 | 100 | 90 | 40 | 100 | 80 | 50
C=C1CC2C(=O)C(c3c(C)cc(C)cc3C)=C(OC(=O)OC)C2C1 (racemic) [I-c-46] | 70 | 80 | 80 | 80 | 90 | 90 | 40 | 80 | 0 | 50
CCc1cc(C)cc(C)c1C1=C(OC(=O)C(C)(C)C)C2CC3(CC2C1=O)OCC=CCO3 (stereo not drawn) [I-b-75] | 100 | 70 | 60 | 100 | 100 | 100 | 100 | 100 | 90 | 60
CCc1cc(C)cc(C)c1C1=C(OC(=O)OC)C2CC3(CC2C1=O)OCC=CCO3 (racemic) [I-c-73] | 100 | 60 | 70 | 50 | 100 | 100 | 100 | 100 | 0 | 40
CCC(=O)OC1=C(c2c(CC)cc(C)cc2CC)C(=O)C2CC3(COC(C)(C)O3)CC12 (stereo not drawn) [I-b-2] | 100 | 40 | 90 | 30 | 100 | 80 | 100 | 90 | 60 | 50
CCc1cc(C)cc(CC)c1C1=C(OC(C)=O)C2CC3(CC2C1=O)OCCO3 (stereo not drawn) [I-b-18] | 100 | 70 | 100 | 80 | 100 | 100 | 100 | 100 | 100 | 70
COc1cc(C)cc(C)c1C1=C(OC(=O)C(C)C)C2CC3(CC2C1=O)OCCCO3 (stereo not drawn) [I-b-64] | 100 | 90 | 60 | 0 | 100 | 100 | 100 | 100 | 100 | 50
COc1cc(C)cc(C)c1C1=C(O)C2CC3(CC2C1=O)OCCO3 (stereo not drawn) [I-a-48] | 80 | 70 | 80 | 40 | 100 | 100 | 80 | 100 | 90 | 60
CCc1cc(C)cc(CC)c1C1=C(OC(=O)C(C)C)C2CC3(CC2C1=O)OCCS3 (mixture of isomers) [I-b-21] | 100 | 20 | 80 | 80 | 100 | 90 | 90 | 100 | 90 | 80
CCOC(=O)OC1=C(c2c(C)cc(C)cc2C)C(=O)C2CC3(COC(C)(C)O3)CC12 (mixture of isomers) [I-c-54] | 90 | 0 | 90 | 0 | 80 | 40 | 90 | 90 | 0 | 40
COC(=O)OC1=C(c2c(C)cc(C)cc2C)C(=O)C2CC3(COC(C)(C)O3)CC12 (mixture of isomers) [I-c-56] | 90 | 0 | 90 | 20 | 80 | 40 | 90 | 80 | 20 | 20
CCc1cc(C)cc(CC)c1C1=C([O-])C2CC3(CC2C1=O)OCCO3.[Na+] (stereo not drawn) [I-f-15] | 100 | 90 | 100 | 100 | 100 | 100 | 80 | 100 | 90 | 60
